Tests used:
EV71 RNA = assay: Viral RNA synthesis by quantitative RT-PCR in RD cells; type: cell-based, Enterovirus 71; conditions: 40 µg/mL
Description: To further analyze the effect of 4s on EV71 replication in RD cells, the efficacy of 4s in inhibiting viral RNA synthesis was analyzed by quantitative reverse transcription polymerase chain reaction (RT-PCR). The infected cells treated with or without 40 µg/mL 4s were harvested at 4, 8, 24 and 36 h pi to examine the relative amount of viral RNA. The fold difference of RNA for all the samples was calculated relative to the RNA level in the EV71-infected cells (virus control) at 4 h pi.
(§1) Figure 4 The effect of 4s on EV71 replication in RD cells. RD cells infected with 100 TCID50 of EV71 were incubated in the absence (virus control) or presence of 40 µg/mL 4s and harvested at the indicated times pi. (A) Total RNA was extracted from cells and culture supernatants and EV71 RNA levels were measured. Cellular actin amplification was used for normalization. The ΔΔCt data were calculated from three independent experiments; (B) EV71-protein was determined by indirect immunofluorescence using a mouse anti-enterovirus 71 monoclonal antibody and an Alexa-Fluor-488-conjugated AffiniPure goat anti-mouse IgG (H + L). The nucleus was stained with DAPI; the green foci indicate the presence of EV71 protein.
The EV71 RNA was extracted from infected cells and culture supernatants with TRIzol (Gibco-Invitrogen, Carlsbad, CA, USA) and reverse-transcribed using a PrimeScript RT reagent kit (TaKaRa, Dalian, China) according to the manufacturer’s instructions. The products of reverse transcription were quantified with the SYBR Premix Ex Taq II (perfect real time) kit (TaKaRa) and detected with a Step One Plus sequence detection system (Applied Biosystems, Foster City, CA, USA). Expression of actin was used as an internal standard. The special primer sequences were: EV71-VP1-F: 5'-[…]-3', EV71-VP1-R: 5'-GTCTCAATCATGCTCTC GTCACT-3'; Actin-F: 5'-[…]-3', Actin-R: 5'-AGGGGCCGGACTCGT CATACT-3'.

EV71 protein = assay: Viral protein by indirect immunofluorescence in RD cells; type: cell-based, Enterovirus 71; conditions: 40 µg/mL post-infection, RD cells, 4, 8 or 24 h
Description: as §1
The influence of 4s on the replication of EV71 was also determined at the translational level. The RD cells grown in 24 coverslips were infected with EV71 and treated with 40 µg/mL 4s post-infection, intracellular viral protein was detected by indirect immunofluorescence analysis after incubation for 4, 8 or 24 h. […]

EV71-infected RD cells = assay: EV71-induced apoptosis, Annexin-V/propidium iodide flow cytometry; type: cell-based, Human; conditions: 40 µg/mL, 100 TCID50 EV71, 36–48 h
Description: EV71 adsorption, internalization, entry, uncoating, and viral RNA replication are […] to trigger infected cell apoptosis, but it is required for viral protein synthesis. Flow cytometry was performed to investigate the effect of 4s on virus-induced cell apoptosis. In the assays, EV71-infected cells were stained with Annexin-V-fluorescein and propidium iodide; fluorescence drifting indicates cells undergoing apoptosis.
Figure 5 Inhibition effect of 4s on EV71-induced apoptosis. RD cells were (A) left untreated or (B) infected with 100 TCID50 of EV71. After viral adsorption, RD cells were incubated in the (B) absence or (C) presence of 40 µg/mL 4s for 36–48 h; (D) The cells were stained with Annexin-V- fluorescein and propidium iodide and measured using flow cytometry. TEXT PRINTED IN THE PICTURE: (C) Virus + 4s: Q1 3.21%; Q2 4.06%; Q4 89.2%; Q3 3.55% DOUBTS OF THE COPYIST ABOUT THIS PICTURE: Panels A (Mock) and B (Virus control) also print quadrant percentages (A: 0.548%, 1.84%, 93.9%, 3.75%; B: 1.32%, 40.1%, 23.7%, 34.9%). I left them out because they are controls without a substance.
For the apoptosis assay, RD cells in 6-well plates infected with 100 TCID50 of EV71 were left untreated or treated with 40 µg/mL 4s for 36–48 h, until the CPEs of virus control cells reached 70%–80%. […]

c1ccc(C(Nc2nc3ccccc3s2)c2c[nH]c3ccccc23)nc1 (stereo not drawn) [Compound 4s]
fold reduction of viral RNA copy number vs virus control (EV71 RNA; 4 h pi): 1.8 fold
fold reduction of viral RNA copy number vs virus control (EV71 RNA; 8 h pi): 9.0 fold
fold reduction of viral RNA copy number vs virus control (EV71 RNA; 24 h pi): 79.8 fold
fold reduction of viral RNA copy number vs virus control (EV71 RNA; 36 h pi): 174.7 fold
viral protein synthesis (immunofluorescent foci) (EV71 protein): suppressed
EV71-induced apoptosis (fluorescence drifting) (EV71-infected RD cells): fluorescence drifting could hardly be observed

From article PMC6271245, “Discovery of Gramine Derivatives That Inhibit the Early Stage of EV71 Replication in Vitro” (Molecules, 2014)
